Test results reported in PMC9866191, “Novel 9-Benzylaminoacridine Derivatives as Dual Inhibitors of Phosphodiesterase 5 and Topoisomerase II for the Treatment of Colon Cancer” (Molecules, 2023).

Experiments:
Assay type in all cases: cell-based
[1] = system: panel of 60 human tumor cell lines; test: NCI 60-cell line one-dose screen (mean); settings: mean of the 60 cell lines, single dose 10^−5 M, read-out: Mean % Growth Inhibition
Experimental: The newly synthesized compounds were screened for their in vitro anticancer activity at the Developmental Therapeutic Program (DTP) of the National Cancer Institute (NCI). The screening involved a panel of 60 human tumor cell lines consisting of 9 tissue types to screen for potential anti-cancer agents. The primary screening of submitted compounds was performed by testing a single dose (10^−5 M) in the full NCI-60 panel. The detailed % inhibition by the tested compounds against the 60 cell lines is shown in Tables S1–S3 in the Supporting Information.

CCRF-CEM = test: NCI-60 one-dose screen; settings: Homo sapiens, Leukemia panel, single dose 10^−5 M, read-out: Growth inhibition %
786-0 = test: NCI-60 one-dose screen; settings: Homo sapiens; 786-0, Renal Cancer panel; single dose 10^−5 M; read-out: Growth inhibition %
A498 = test: NCI-60 one-dose screen; settings: Homo sapiens; A498, Renal Cancer panel; single dose 10^−5 M; read-out: Growth inhibition %
ACHN = test: NCI-60 one-dose screen; settings: Homo sapiens, Renal Cancer panel, single dose 10^−5 M, read-out: Growth inhibition %
BT-549 = test: NCI-60 one-dose screen; settings: Homo sapiens; BT-549, Breast Cancer panel; single dose 10^−5 M; read-out: Growth inhibition %
CAKI-1 = test: NCI-60 one-dose screen; settings: Homo sapiens; CAKI-1, Renal Cancer panel; single dose 10^−5 M; read-out: Growth inhibition %
DU-145 = test: NCI-60 one-dose screen; settings: Homo sapiens; DU-145, Prostate Cancer panel; single dose 10^−5 M; read-out: Growth inhibition %
EKVX = test: NCI-60 one-dose screen; settings: Homo sapiens, Non-small cell lung panel, single dose 10^−5 M, read-out: Growth inhibition %
HCT-15 = test: NCI-60 one-dose screen; settings: Homo sapiens; HCT-15, Colon Cancer panel; single dose 10^−5 M; read-out: Growth inhibition %
HL-60(TB) = test: NCI-60 one-dose screen; settings: Homo sapiens, Leukemia panel, single dose 10^−5 M, read-out: Growth inhibition %
HOP-92 = test: NCI-60 one-dose screen; settings: Homo sapiens; HOP-92, Non-small cell lung panel; single dose 10^−5 M; read-out: Growth inhibition %
HT29 = test: NCI-60 one-dose screen; settings: Homo sapiens, HT-29; HT29, Colon Cancer panel; single dose 10^−5 M; read-out: Growth inhibition %
M14 = test: NCI-60 one-dose screen; settings: Homo sapiens; M14, Melanoma panel; single dose 10^−5 M; read-out: Growth inhibition %
MCF7 = test: NCI-60 one-dose screen; settings: Homo sapiens; MCF7, Breast Cancer panel; single dose 10^−5 M; read-out: Growth inhibition %
MDA-MB-435 = test: NCI-60 one-dose screen; settings: Homo sapiens; MDA-MB-435, Melanoma panel; single dose 10^−5 M; read-out: Growth inhibition %
MOLT-4 = test: NCI-60 one-dose screen; settings: Homo sapiens; MOLT-4, Leukemia panel; single dose 10^−5 M; read-out: Growth inhibition %
NCI-H23 = test: NCI-60 one-dose screen; settings: Homo sapiens; NCI-H23, Non-small cell lung panel; single dose 10^−5 M; read-out: Growth inhibition %
NCI-H460 = test: NCI-60 one-dose screen; settings: Homo sapiens; NCI-H460, Non-small cell lung panel; single dose 10^−5 M; read-out: Growth inhibition %
NCI-H522 = test: NCI-60 one-dose screen; settings: Homo sapiens; NCI-H522, Non-small cell lung panel; single dose 10^−5 M; read-out: Growth inhibition %
NCI/ADR-RES = test: NCI-60 one-dose screen; settings: Homo sapiens, Ovarian Cancer panel, single dose 10^−5 M, read-out: Growth inhibition %
OVCAR-4 = test: NCI-60 one-dose screen; settings: Homo sapiens; OVCAR-4, Ovarian Cancer panel; single dose 10^−5 M; read-out: Growth inhibition %
OVCAR-5 = test: NCI-60 one-dose screen; settings: Homo sapiens; OVCAR-5, Ovarian Cancer panel; single dose 10^−5 M; read-out: Growth inhibition %
PC-3 = test: NCI-60 one-dose screen; settings: Homo sapiens; PC-3, Prostate Cancer panel; single dose 10^−5 M; read-out: Growth inhibition %
SF-295 = test: NCI-60 one-dose screen; settings: Homo sapiens; SF-295, CNS Cancer panel; single dose 10^−5 M; read-out: Growth inhibition %
SK-MEL-28 = test: NCI-60 one-dose screen; settings: Homo sapiens; SK-MEL-28, Melanoma panel; single dose 10^−5 M; read-out: Growth inhibition %
SK-MEL-5 = test: NCI-60 one-dose screen; settings: Homo sapiens; SK-MEL-5, Melanoma panel; single dose 10^−5 M; read-out: Growth inhibition %
SK-OV-3 = test: NCI-60 one-dose screen; settings: Homo sapiens; SK-OV-3, Ovarian Cancer panel; single dose 10^−5 M; read-out: Growth inhibition %
SNB-75 = test: NCI-60 one-dose screen; settings: Homo sapiens; SNB-75, CNS Cancer panel; single dose 10^−5 M; read-out: Growth inhibition %
SR = test: NCI-60 one-dose screen; settings: Homo sapiens, Leukemia panel, single dose 10^−5 M, read-out: Growth inhibition %
T-47D = test: NCI-60 one-dose screen; settings: Homo sapiens, T47D, Breast Cancer panel, single dose 10^−5 M, read-out: Growth inhibition %
IGROV1 = test: NCI-60 one-dose screen; settings: Homo sapiens, IGROV-1; IGROV1, Ovarian Cancer panel; single dose 10^−5 M; read-out: Growth inhibition %

Row | Compound | inhibition at 10 µM [1] [%] | inhibition at 10 µM (CCRF-CEM) [%] | inhibition at 10 µM (786-0) [%] | inhibition at 10 µM (A498) [%] | inhibition at 10 µM (ACHN) [%] | inhibition at 10 µM (BT-549) [%] | inhibition at 10 µM (CAKI-1) [%] | inhibition at 10 µM (DU-145) [%] | inhibition at 10 µM (EKVX) [%] | inhibition at 10 µM (HCT-15) [%] | inhibition at 10 µM (HOP-92) [%] | inhibition at 10 µM (HT29) [%] | inhibition at 10 µM (M14) [%] | inhibition at 10 µM (MCF7) [%] | inhibition at 10 µM (MDA-MB-435) [%] | inhibition at 10 µM (MOLT-4) [%] | inhibition at 10 µM (NCI-H23) [%] | inhibition at 10 µM (NCI-H460) [%] | inhibition at 10 µM (NCI-H522) [%] | inhibition at 10 µM (NCI/ADR-RES) [%] | other results
1 | c1ccc(CNc2c3ccccc3nc3ccccc23)cc1 [Compound 1, Acridin-9-yl-benzyl-amine] | 62.7 | 61 | 65.7 | 83.4 | 81.9 | 27.2 | 66.9 | 51.4 | 51.9 | 75.4 | 74.1 | 81 | 67.7 | 88 | 57.2 | 84.5 | 58.8 | 89.7 | 43.2 | 62.4 | inhibition at 10 µM (HL-60(TB)): 56.2%; inhibition at 10 µM (OVCAR-4): 56.8%; inhibition at 10 µM (OVCAR-5): 54.3%; inhibition at 10 µM (PC-3): 62.8%; inhibition at 10 µM (SF-295): 62.4%; inhibition at 10 µM (SK-MEL-28): 14.5%; inhibition at 10 µM (SK-MEL-5): 36.9%; inhibition at 10 µM (SK-OV-3): 53.3%; inhibition at 10 µM (SNB-75): 35.6%; inhibition at 10 µM (SR): 88.3%; inhibition at 10 µM (T-47D): 62.2%; inhibition at 10 µM (IGROV1): 70.2%
2 | Cc1ccccc1CNc1c2ccccc2nc2ccccc12 [Compound 2, Acridin-9-yl-(2-methylbenzyl)-amine] | 77.7 | 82.4 | 75.7 | 102 | 88.4 | 44.1 | 74.9 | 69.4 | 61.6 | 85.4 | 101 | 91.1 | 86.8 | 93.1 | 76.1 | 91.2 | 76.6 | 93.1 | 50 | 75.2 | inhibition at 10 µM (HL-60(TB)): 84.7%; inhibition at 10 µM (OVCAR-4): 67.1%; inhibition at 10 µM (OVCAR-5): 63.3%; inhibition at 10 µM (PC-3): 74.4%; inhibition at 10 µM (SF-295): 70.5%; inhibition at 10 µM (SK-MEL-28): 41.7%; inhibition at 10 µM (SK-MEL-5): 66.1%; inhibition at 10 µM (SK-OV-3): 59.2%; inhibition at 10 µM (SNB-75): 54.7%; inhibition at 10 µM (SR): 97.3%; inhibition at 10 µM (T-47D): 75.5%; inhibition at 10 µM (IGROV1): 85.2%
3 | Cc1ccc2nc3ccccc3c(NCc3ccc(Cl)cc3)c2c1 [Compound 31, (4-Chlorobenzyl)-(2-methyl-acridin-9-yl)-amine] | 66.9 | 81.8 | 65.3 | 87 | 66.7 | 24.4 | 54.3 | 48.6 | 44.6 | 85.5 | 105 | 94.7 | 117 | 121 | 29.7 | 99.9 | 54 | 70.5 | 45.8 | 58 | inhibition at 10 µM (OVCAR-4): 62.5%; inhibition at 10 µM (OVCAR-5): 49.3%; inhibition at 10 µM (PC-3): 60.9%; inhibition at 10 µM (SF-295): 56.3%; inhibition at 10 µM (SK-MEL-28): 24.5%; inhibition at 10 µM (SK-MEL-5): 46%; inhibition at 10 µM (SK-OV-3): 24.8%; inhibition at 10 µM (SNB-75): 33.5%; inhibition at 10 µM (SR): 109%; inhibition at 10 µM (T-47D): 42.1%; inhibition at 10 µM (IGROV1): 72.9%
